Laboratory results published in article PMC11079024, “Identification of a family of species-selective complex I inhibitors as potential anthelmintics” (Nature Communications, 2024).
pIC50: −log10 of the molar value. “And” between values parts separate entries of the source, which are not always exact repeats. Equal values may be shown once. Read-outs that look alike come from different tables or passages of the source.

Target: C. elegans (N2) complex I (NADH:ubiquinone oxidoreductase) (Caenorhabditis elegans, UniProt P24887+Q93873+Q94360)
Experiment: biochemical
Format: biochemical
Procedure, shortened: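 Mitochondria from liquid-cultured adults were freeze-thawed thrice before the 15-min DCIP-coupled NADH oxidation read.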

[1] = wild-type C. elegans, mean of replicates, read-out: in vitro complex I activity relative to solvent control, Mean
[2] = wild-type C. elegans, single replicate, read-out: in vitro complex I activity relative to solvent control, individual replicate

Sequence of C. elegans (N2) complex I (NADH:ubiquinone oxidoreductase) (Q94360 17-199): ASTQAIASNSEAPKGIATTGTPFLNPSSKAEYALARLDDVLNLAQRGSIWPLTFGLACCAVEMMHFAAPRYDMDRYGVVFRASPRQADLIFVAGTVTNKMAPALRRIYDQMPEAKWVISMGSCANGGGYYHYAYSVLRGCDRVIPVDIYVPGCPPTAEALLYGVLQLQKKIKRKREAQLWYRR
Sequence of C. elegans (N2) complex I (NADH:ubiquinone oxidoreductase) (P24887 whole entry): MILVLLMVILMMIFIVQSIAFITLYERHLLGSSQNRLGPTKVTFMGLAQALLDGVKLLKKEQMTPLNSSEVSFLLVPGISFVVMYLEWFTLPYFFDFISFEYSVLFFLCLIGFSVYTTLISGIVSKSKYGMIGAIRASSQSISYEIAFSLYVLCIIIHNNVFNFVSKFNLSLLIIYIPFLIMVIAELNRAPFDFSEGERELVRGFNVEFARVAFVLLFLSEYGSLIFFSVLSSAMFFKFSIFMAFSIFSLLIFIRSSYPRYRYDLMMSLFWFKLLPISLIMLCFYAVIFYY
Sequence of C. elegans (N2) complex I (NADH:ubiquinone oxidoreductase) (Q93873 31-482): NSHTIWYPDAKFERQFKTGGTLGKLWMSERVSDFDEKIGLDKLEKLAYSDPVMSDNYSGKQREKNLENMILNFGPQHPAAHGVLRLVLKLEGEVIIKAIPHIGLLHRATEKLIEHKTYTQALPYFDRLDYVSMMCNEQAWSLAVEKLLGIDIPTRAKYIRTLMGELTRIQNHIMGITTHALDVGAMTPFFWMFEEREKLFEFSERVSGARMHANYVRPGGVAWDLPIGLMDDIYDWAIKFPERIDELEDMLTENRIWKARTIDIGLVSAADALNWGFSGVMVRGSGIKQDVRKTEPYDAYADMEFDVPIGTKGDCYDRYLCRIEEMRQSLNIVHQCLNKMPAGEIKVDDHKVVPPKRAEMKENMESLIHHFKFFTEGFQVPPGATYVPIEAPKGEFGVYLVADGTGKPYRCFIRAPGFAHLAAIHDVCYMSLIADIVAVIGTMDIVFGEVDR

C=C(C)[C@H]1Cc2c(ccc3c2O[C@@H]2COc4cc(OC)c(OC)cc4[C@@H]2C3=O)O1 [Rotenone, reference compound]
activity at 100 µM (100 µM compound, relative to solvent control, mean (SEM), read-out: % Activity Complex I): 0% | activity at 100 µM (100 μM inhibitor, in vitro activity relative to solvent control, N2 C. elegans mitochondria, single replicate, read-out: CI Activity): 0% | activity at 100 µM (100 μM of NPD compound, C. elegans mitochondria, individual biological replicates, read-out: Percent in vitro activity, Complex I (single replicate Rep1-Rep4)): 0% | activity at 100 µM (100 μM of NPD compound, C. elegans mitochondria, mean of four biological replicates, read-out: Percent in vitro activity, Complex I (Mean)): 0% | Absorbance DCIP [600nm], complex I (30 s, single replicate): 1.265 and 1.244 and 1.248 | Absorbance DCIP [600nm], complex I (60 s, single replicate): 1.261 and 1.240 and 1.243 | Absorbance DCIP [600nm], complex I (90 s, single replicate): 1.257 and 1.236 and 1.240 | Absorbance DCIP [600nm], complex I (120 s, single replicate): 1.252 and 1.232 and 1.237 | Absorbance DCIP [600nm], complex I (150 s, single replicate): 1.248 and 1.229 and 1.234 | Absorbance DCIP [600nm], complex I (180 s, single replicate): 1.244 and 1.226 and 1.230 | Absorbance DCIP [600nm], complex I (210 s, single replicate): 1.240 and 1.223 and 1.227 | Absorbance DCIP [600nm], complex I (240 s, single replicate): 1.237 and 1.219 and 1.223 | Absorbance DCIP [600nm], complex I (270 s, single replicate): 1.233 and 1.216 and 1.220 and 1.199 | Absorbance DCIP [600nm], complex I (300 s, single replicate): 1.229 and 1.212 and 1.216 and 1.196 | Absorbance DCIP [600nm], complex I (330 s, single replicate): 1.225 and 1.209 and 1.213 and 1.193 | Absorbance DCIP [600nm], complex I (360 s, single replicate): 1.221 and 1.206 and 1.210 and 1.190 | Absorbance DCIP [600nm], complex I (390 s, single replicate): 1.218 and 1.203 and 1.206 and 1.187 | Absorbance DCIP [600nm], complex I (420 s, single replicate): 1.214 and 1.199 and 1.203 and 1.185 | Absorbance DCIP [600nm], complex I (450 s, single replicate): 1.210 and 1.196 and 1.200 and 1.182 | Absorbance DCIP [600nm], complex I (480 s, single replicate): 1.206 and 1.193 and 1.197 and 1.179 | Absorbance DCIP [600nm], complex I (510 s, single replicate): 1.203 and 1.190 and 1.193 and 1.176 | Absorbance DCIP [600nm], complex I (540 s, single replicate): 1.199 and 1.187 and 1.190 and 1.174 | Absorbance DCIP [600nm], complex I (570 s, single replicate): 1.195 and 1.183 and 1.187 | Absorbance DCIP [600nm], complex I (600 s, single replicate): 1.192 and 1.180 and 1.184 | Absorbance DCIP [600nm], complex I (630 s, single replicate): 1.188 and 1.177 and 1.181 | Absorbance DCIP [600nm], complex I (660 s, single replicate): 1.185 and 1.174 and 1.177 | Absorbance DCIP [600nm], complex I (690 s, single replicate): 1.181 and 1.171 and 1.174 | Absorbance DCIP [600nm], complex I (720 s, single replicate): 1.178 and 1.168 and 1.171 | Absorbance DCIP [600nm], complex I (750 s, single replicate): 1.174 and 1.164 and 1.168 | Absorbance DCIP [600nm], complex I (780 s, single replicate): 1.171 and 1.161 and 1.165 | Absorbance DCIP [600nm], complex I (810 s, single replicate): 1.167 and 1.158 and 1.162 | Absorbance DCIP [600nm], complex I (840 s, single replicate): 1.164 and 1.155 and 1.159 | Absorbance DCIP [600nm], complex I (870 s, single replicate): 1.161 and 1.152 and 1.156 | Absorbance DCIP [600nm], complex I (900 s, single replicate): 1.157 and 1.149 and 1.153 | remaining activity at 0.0001 µM [1]: 95.7% | remaining activity at 0.0001 µM [2]: 90.6% | remaining activity at 0.0005 µM [1]: 104% | remaining activity at 0.0005 µM [2]: 108% | remaining activity at 0.001 µM (dose 0.001 µM, wild-type C. elegans, mean of replicates, read-out: in vitro complex I activity relative to solvent control, Mean): 104% | remaining activity at 0.0025 µM [1]: 110% | remaining activity at 0.0025 µM [2]: 108% | remaining activity at 0.005 µM [1]: 101% | remaining activity at 0.005 µM [2]: 97% | remaining activity at 0.013 µM [1]: 90.6% | remaining activity at 0.013 µM [2]: 89.2% | remaining activity at 0.025 µM (dose 0.025 µM, wild-type C. elegans, mean of replicates, read-out: in vitro complex I activity relative to solvent control, Mean): 89.6% | remaining activity at 0.063 µM [1]: 27% | remaining activity at 0.063 µM [2]: 21.5% | remaining activity at 0.125 µM [1]: 26.8% | remaining activity at 0.125 µM [2]: 17.8% | remaining activity at 0.313 µM (dose 0.313 µM, wild-type C. elegans, mean of replicates, read-out: in vitro complex I activity relative to solvent control, Mean): 0.682% | remaining activity at 0.625 µM (dose 0.625 µM, wild-type C. elegans, mean of replicates, read-out: in vitro complex I activity relative to solvent control, Mean): 0.888% | remaining activity at 1.5 µM (dose 1.5 µM, wild-type C. elegans, mean of replicates, read-out: in vitro complex I activity relative to solvent control, Mean): 7.71% | remaining activity at 3 µM (dose 3 µM, wild-type C. elegans, mean of replicates, read-out: in vitro complex I activity relative to solvent control, Mean): 5.32% | remaining activity at 15 µM (dose 15 µM, wild-type C. elegans, mean of replicates, read-out: in vitro complex I activity relative to solvent control, Mean): 5.62% | remaining activity at 37.5 µM (dose 37.5 µM, wild-type C. elegans, mean of replicates, read-out: in vitro complex I activity relative to solvent control, Mean): 6.72% | remaining activity at 75 µM (dose 75 µM, wild-type C. elegans, mean of replicates, read-out: in vitro complex I activity relative to solvent control, Mean): 3.64% | pIC50 (wild-type (N2) mitochondria, read-out: C. elegans Complex I IC50): 7.35

O=C(NCCc1ccc(Cl)cc1)c1ccccc1C(F)(F)F [Wact-11]
% Activity Complex I (100 µM compound, relative to solvent control, mean (SEM)): 84.83 (1.45) % | CI Activity (100 μM inhibitor, in vitro activity relative to solvent control, N2 C. elegans mitochondria, Mean): 84.830% | Percent in vitro activity, Complex I (single replicate Rep1-Rep4) (100 μM of NPD compound, C. elegans mitochondria, individual biological replicates): 83.274% and 93.104% and 79.669% | Percent in vitro activity, Complex I (Mean) (100 μM of NPD compound, C. elegans mitochondria, mean of four biological replicates): 84.830%
